Time and Activity data for 13 compounds are collected here from ChEMBL document CHEMBL3046499, “Synthesis of 2,2-diphenylpropionate derivatives and their effects on larval growth of the silkworm” (2000).

Experiment [1] concerns Bombyx mori. Briefly: Insecticidal activity against fourth-instar larval stage of Bombyx mori Shunrei x Shongetsu assessed as fourth-instar larval duration time at 30 ppm administered through artificial diet (reference value: 5.1 +/- 0.2 days). It is filed as functional.
Experiment [2] has as its system Bombyx mori. Briefly: Insecticidal activity against fourth-instar larval stage of Bombyx mori Shunrei x Shongetsu assessed as fourth-instar larval duration time at 100 ppm administered through artificial diet (reference value: 5.1 +/- 0.2 days). The class given is functional.
For experiment [3], the system named is Bombyx mori. Briefly: Insecticidal activity against fourth-instar larval stage of Bombyx mori Shunrei x Shongetsu assessed as delay in increase of hemolymph 20-hydroxyecdysone level at 50 ppm administered through artificial diet measured for 5 days post third ecdysis by ELISA relative to acetone-treated control. The class given is functional, organism-based.

Structures are written as SMILES. Active and inactive are the calls of the source. The calls are words filed in the database; no cut-off is given here.

With `CCN1CCN(CCCCCOC(=O)C(C)(c2ccccc2)c2ccccc2)CC1`, the Time in the experiment with Bombyx mori [1] was 5.1 days; in the experiment with Bombyx mori [2], 5.8 days.

As to `CN1C2CCC1CC(OC(=O)C(C)(c1ccccc1)c1ccccc1)C2` (stereo unspecified), the Time in the experiment on Bombyx mori [1] was 6.1 days.

On to `CC(C(=O)OCCCN1CCCCC1)(c1ccccc1)c1ccccc1`, for which the Time in the experiment on Bombyx mori [1] is 5.1 days; in the experiment with Bombyx mori [2], 7.4 days.

Turning to `CC(C(=O)OCCCN1CCCC1)(c1ccccc1)c1ccccc1`, the Time with Bombyx mori [1] was determined as 5.2 days; in the experiment with Bombyx mori [2], 6 days.

With `CN1CCN(CCCOC(=O)C(C)(c2ccccc2)c2ccccc2)CC1`, the Time in the experiment with Bombyx mori [1] came out at 6.9 days; in the experiment with Bombyx mori [2], 7.5 days.

As for `CCN1CCN(CCOC(=O)C(C)(c2ccccc2)c2ccccc2)CC1`, the Time is 5.1 days with Bombyx mori [1] and 6.2 days in the experiment on Bombyx mori [2].

For the compound `CCN(CC)CCCOC(=O)C(C)(c1ccccc1)c1ccccc1`, the Time in the experiment on Bombyx mori [1] came out at 5.1 days; in the experiment with Bombyx mori [2] it was 5.2 days.

For `CCN1CCN(CCCOC(=O)C(C)(c2ccccc2)c2ccccc2)CC1`, the figures for the Time with Bombyx mori [1] and with Bombyx mori [2] were 6.5 days and 7.2 days, respectively. Further, the outcome in the experiment with Bombyx mori [3] was Active.

Take `CC(C(=O)OCCCN1CCOCC1)(c1ccccc1)c1ccccc1`: the values for the Time with Bombyx mori [1] and in the experiment on Bombyx mori [2] were 5 days and 6.1 days, respectively.

Regarding `CN1[C@@H]2CC[C@H]1CC(OC(=O)[C@H](CO)c1ccccc1)C2` (stereo partly drawn) [ENDO-ATROPINE], the figures for the Time in the experiment with Bombyx mori [1] and in the experiment on Bombyx mori [2] were 5.2 days and 6.3 days, respectively.

Consider `CN(CCCOC(=O)C(C)(c1ccccc1)c1ccccc1)C1CCCCC1`, for which the Time with Bombyx mori [1] was 5 days; with Bombyx mori [2] it was 5.6 days.

For the compound `CCN1CCN(CCCCCCOC(=O)C(C)(c2ccccc2)c2ccccc2)CC1`, the Time in the experiment on Bombyx mori [1] came out at 4.7 days; in the experiment on Bombyx mori [2], 4.5 days.

For the compound `CCN1CCN(CCCCOC(=O)C(C)(c2ccccc2)c2ccccc2)CC1`, the values for the Time with Bombyx mori [1] and with Bombyx mori [2] were 5.6 days and 6.1 days, respectively.
